# Literature values as cited in patent publication US9308212B2, “Compositions comprising alprazolam for treating primary insomnia and insomnia associated with anxiety states and process for preparing them” (LABORATORIOS BAGO S.A., priority 2008, dated 2016).
smiles,measurement,value
"CO[C@@H]1[C@@H](OC(N)=O)[C@@H](O)[C@H](Oc2ccc3c(O)c(NC(=O)c4ccc(O)c(CC=C(C)C)c4)c(=O)oc3c2C)OC1(C)C [amorphous novobiocine, novobiocine]",Solubility of the amorphous form relative to the crystalline form,10 times
